Measured values: US8367607B2, “Oxyntomodulin peptide analogue” (Eli Lilly and Company, priority 2009, dated 2013)
Marks after values point to notes of the source that are not given here.

Legend:
[1] = Acute effects on plasma FGF21, triglyceride levels and hepatic gene expression in DIO mice; type: in vivo, diet-induced obese C57BL/6 mice; settings: single sc injection 22.5 nmole/kg
Procedure: The day before the study, mice are randomized to treatment groups (N=7/group), each group having similar mean body weight. […] Food is removed at the time of injection of peptide or vehicle. The following morning (approximately 10 AM), the animals are sacrificed to collect plasma and liver tissue. Glucose and triglyceride concentrations are measured using a Hitachi blood chemistry analyzer. Gene expression is determined by RT-PCR. Malonyl-CoA and acetyl-CoA levels are measured by HPLC.

[2] = Intraperitoneal glucose tolerance test in lean mice; type: in vivo, C57BL/6 mice; settings: 16 hours before test
Procedure: Nine week old male C57BL/6 mice are used in the study Animals are randomized into groups based on fed body weight. […] Food is removed at the time of injection of peptide or vehicle. At time 0, animals are given 2 g/kg dextrose by IP injection. Blood is collected by tail vein bleeding at 0, 3, 6, 12 and 30 minutes after glucose challenge. Glucose concentration is measured by glucometer. Insulin is measure by Mesoscale.

[3] = Oral glucose tolerance test after 2-week treatment in DIO mice; type: in vivo; settings: for Glucose AUC (0 to 120 min), oral glucose load, MEAN: DIO mice
Procedure: (§1) Fifty-six hours after the last injection as described in Example 7 (Study 1) in DIO mice, mice are fasted for 16 hours prior to the start of the glucose tolerance test. At time 0, animals are given 2 g/kg dextrose by oral gavage or intraperitoneal (IP) injection. Blood is collected by tail vein bleeding at 0, 15, 30, 60 and 120 minutes after glucose challenge. Glucose concentration is measured by glucometer.

[4] = Intraperitoneal glucose tolerance test after 4-week treatment in DIO mice; type: in vivo; settings: for Glucose AUC (0 to 120 min), intraperitoneal glucose load, MEAN: after 4 week treatment, DIO mice
Procedure: as §1
An intraperitoneal glucose tolerance test (IPGTT) is performed on day 29, 3 days after the last injection as described in Example 7 (Study 2) in DIO mice.

[5] = Food intake, body weight and body composition in DIO mice, Study 1: two week treatment; type: in vivo, diet-induced obese (DIO) C57BL/6 mice
Procedure: Three to four months old male diet-induced obese (DIO) C57BL/6 mice are used. Animals are individually housed in a temperature-controlled (24° C.) facility with a 12 hour light/dark cycle (lights on 22:00), and have free access to food and water. […] Body weight and the weight of food plus the hopper are measured at the same time. Food consumed in the preceding 24 hours is calculated by subtracting current weight of food plus the hopper from that of the previous day. Absolute changes in body weight are calculated by subtracting the body weight of the animal prior to the first injection. […] Fat free mass is calculated by subtracting fat mass from total body weight.

[6] = Oral glucose tolerance test (OGTT) in ob/ob mice; type: in vivo; settings: single injection 7.5 nmole/kg
Procedure: Two to three months old male ob/ob mice are individually housed in a temperature-controlled (24° C.) facility with a 12 hour light/dark cycle (lights on 2200 hours), and have free access to the standard chow and water. After at least 2 weeks of acclimation to the facility, 3-hours fasting blood glucose is measured by tail vein bleeding at 9 AM. Mice with blood glucose under 180 mg/dL are not used. Remaining animals are randomized to treatment groups (N=6-7/group), each group having similar average blood glucose level. The mice are given access to food until the time of injection. […] Food is removed at the time of injection. An OGTT (Table 7) or IPGTT (Table 8) is performed 16 hours after the peptide injection. At time 0, animals are given 2 g/kg dextrose by oral gavage (Table 7) or intraperitoneal injection (Table 8). Blood is collected by tail vein bleeding at 0, 15, 30, 60 and 120 minutes after glucose challenge. Glucose concentration is measured by glucometer.

[7] = Food intake, body weight, body composition, calorimetry and plasma markers in DIO mice, Study 2: four week treatment; type: in vivo, diet-induced obese (DIO) C57BL/6 mice
Procedure: Three to four months old male diet-induced obese (DIO) C57BL/6 mice are used. Animals are individually housed in a temperature-controlled (24° C.) facility with a 12 hour light/dark cycle (lights on 22:00), and have free access to food and water. After 2 weeks acclimation to the facility, mice are randomized to treatment groups (n=8-10/group), each group having similar mean body weight and fat mass. Before the experiment, mice are subcutaneously (sc) injected with vehicle solution and weighed for 2 days to acclimate them to the procedures.
Body weight and the weight of food plus the hopper are measured at the same time. Food consumed in the preceding 24 hours is calculated by subtracting current weight of food plus the hopper from that of the previous day. Absolute changes in body weight are calculated by subtracting the body weight of the animal prior to the first injection. On days 1, 14 and 28 total fat mass is measured by nuclear magnetic resonance (NMR) using an Echo Medical System (Houston, Tex.) instrument. Fat free mass is calculated by subtracting fat mass from total body weight.

[8] = high dose, completion of 4-week study

Substance: His-(Aib)-Gln-Gly-Thr-Phe-Thr-Ser-Asp-Tyr-Ser-Lys-Tyr-Leu-Asp-Ser-Lys-Lys-Ala-Gln-Glu-Phe-Val-Gln-Trp-Leu-Leu-Asn-(Aib)-Gly-Arg-Asn-Arg-Asn-Asn-Ile-Ala-Cys(20 kDa PEG)-Cys(20 kDa PEG)
- decrease of liver acetyl-CoA concentration versus vehicle control ([1]; DIO mice): 39%
- decrease of liver malonyl-CoA concentration versus vehicle control ([1]; DIO mice): 63%
- decrease of hepatic ChREBP gene expression ([1]; RT-PCR): 52%
- decrease of hepatic PCSK9 gene expression ([1]; RT-PCR): 61%
- increase of hepatic pgc-1a gene expression ([1]; RT-PCR): 7 fold
- induction of hepatic FGF21 gene expression ([1]; RT-PCR): 17 fold
- increase in circulating FGF21 ([1]; plasma): 6 fold
- Glucose AUC (0 to 30 min), IPGTT in lean mice, MEAN ([2]; 5 nmole/kg): 7059 mg·min/dL
- Insulin AUC (0 to 30 min), IPGTT in lean mice, MEAN ([2]; 5 nmole/kg): 30.67* ng * min/mL
- Glucose AUC (0 to 30 min), IPGTT in lean mice, MEAN ([2]; 15 nmole/kg): 6103* mg * min/dL
- Insulin AUC (0 to 30 min), IPGTT in lean mice, MEAN ([2]; 15 nmole/kg): 45.26* ng * min/mL
- Glucose AUC (0 to 120 min), oral glucose load, MEAN ([3]; 7.5 nmole/kg): 17722* mg * min/dL
- Glucose AUC (0 to 120 min), oral glucose load, MEAN ([3]; 15 nmole/kg): 17518* mg * min/dL
- blood glucose at all time points before and after the oral glucose challenge versus vehicle ([3]; all doses): significantly lowered
- Glucose AUC (0 to 120 min), intraperitoneal glucose load, MEAN ([4]; 6.7 nmole/kg): 30073 mg·min/dL
- Glucose AUC (0 to 120 min), intraperitoneal glucose load, MEAN ([4]; 20.0 nmole/kg): 19264* mg * min/dL
- blood glucose at all time points before and after IP glucose challenge versus vehicle ([4]; high dose of analogue, both doses of positive control, day 29): significantly lowered
- glucose levels after IP glucose challenge ([4]; low dose, day 29): little effect
- cumulative weight loss, reduction compared to the vehicle group ([5]; 7.5 nmole/kg every 3 days, 2 weeks): about 9%
- Fat mass loss (g fat weight change for 14 days) ([5]; 7.5 nmole/kg sc every 3 days): -2.2 ± 0.3 g
- Overall weight loss (g weight change for 14 days) ([5]; 7.5 nmole/kg sc every 3 days): -3.1 ± 0.4 g
- Total food intake (g total for 14 days) ([5]; 7.5 nmole/kg sc every 3 days): 35.0 ± 0.8 g
- vehicle controlled cumulative weight loss ([5]; 15 nmole/kg every 3 days, 2 weeks): 18%
- Fat mass loss (g fat weight change for 14 days) ([5]; 15 nmole/kg sc every 3 days): -3.9 ± 0.7 g
- Overall weight loss (g weight change for 14 days) ([5]; 15 nmole/kg sc every 3 days): -6.1 ± 0.9 g
- Total food intake (g total for 14 days) ([5]; 15 nmole/kg sc every 3 days): 29.8 ± 1.5 g
- cumulative food intake reduction compared to the vehicle group ([5]; 15 nmole/kg, end of 2-week study): 27%
- effect on food intake and body weight ([5]; 7.5 and 15 nmole/kg, 2 weeks): dose-dependent reduction
- blood glucose in ob/ob mice [6]: normalized blood glucose
- blood glucose levels at all time points after glucose challenge versus vehicle control group ([6]; ob/ob mice): significantly lower
- Total food intake (g total for the first 14 days) ([7]; 6.7 nmole/kg sc every 3 days): 36.0 ± 1.1 g
- Fat mass loss (g fat weight change for 28 days) ([7]; 6.7 nmole/kg sc every 3 days): -0.7 ± 0.2 g
- Overall weight loss (g weight change for 28 days) ([7]; 6.7 nmole/kg sc every 3 days): -2.0 ± 0.4 g
- weight loss compared with 22.5 nmole/kg dose of the positive control ([7]; 20 nmole/kg): significantly greater weight loss
- Total food intake (g total for the first 14 days) ([7]; 20.0 nmole/kg sc every 3 days): 26.1 ± 1.4 g
- Fat mass loss (g fat weight change for 28 days) ([7]; 20.0 nmole/kg sc every 3 days): -7.5 ± 0.7 g
- Overall weight loss (g weight change for 28 days) ([7]; 20.0 nmole/kg sc every 3 days): -11.1 ± 0.9 g
- maximal weight reduction, of the initial body weight ([7]; 20 nmole/kg, after 15 days of treatment): about 25%
- increase of averaged 24-hour energy expenditure versus vehicle ([7]; 20 nmole/kg, indirect calorimetry, day 21): 18%
- leptin levels versus vehicle treated controls [7, 8]: significantly reduced
- plasma adiponectin levels versus vehicle treated controls [7, 8]: statistically significantly difference
- cumulative food intake ([7]; high doses (20 nmole/kg)): significantly decreased
- body weight versus positive control group ([7]; lower doses (6.7 nmole/kg)): decreased body weight to a similar degree as seen in the positive control group
